Laboratory results: US10551389B2, “Target binding molecules identified by kinetic target-guided synthesis” (UNIVERSITY OF SOUTH FLORIDA, priority 2013, dated 2020)

Tests used:
Mcl-1 = Mcl-1 (Homo sapiens, UniProt Q07820); assay: Inhibition of Mcl-1 (disruption of Mcl-1/Bim interaction); type: binding; conditions: for % Inhibition (25 μM) Mcl-1 / inhibition at 25 µM: compound at 25 μM; for % Inhibition (50 μM) Mcl-1 / inhibition at 50 µM: compound at 50 μM
Method: (§1) In a subsequent study, a structurally diverse library of forty five thio acids and thirty eight sulfonyl azides (identified above) was screened in parallel against Mcl-1 and Bcl-XL using the above mentioned approach. Several potential hit combinations were identified (Table 3). All of these kinetic TGS hit compounds were synthesized (identified above and in Table 3). All the reactions were performed at 20-30 mg scale. The 9-fluorenylmethyl thioester was placed in a 2.0 mL vial and 3.5% DBU/dry DMF solution was added (per 1 μmol of thioester, 4.7 μL, of 3.5% DBU/dry DMF solution was added) and the reaction was stirred for one minute. Then the sulfonylazide (1 eq to thioester) was added to the reaction mixture and immediately bubbling was observed. After the reaction was completed (approximately one minute, monitored by LC-MS) water (200 μL) was added and the pH was adjusted to 7.0 using 1M HCl solution. The reaction mixture was extracted with DCM until there is no product in the aqueous layer (checked by TLC or LC-MS). The product was purified by flash chromatography. Testing of these acylsulfonamides has shown that the hit compounds disrupt the Bcl-XL/Bim or Mcl-1/Bim interaction (Table 3).

Bcl-XL = Bcl-XL (Homo sapiens, UniProt Q07817); assay: Inhibition of Bcl-XL (disruption of Bcl-XL/Bim interaction); type: binding; conditions: for % Inhibition (25 μM) Bcl-XL / inhibition at 25 µM: compound at 25 μM; for % Inhibition (50 μM) Bcl-XL / inhibition at 50 µM: compound at 50 μM
Sequence of Bcl-XL (Q07817 whole entry, species assumed): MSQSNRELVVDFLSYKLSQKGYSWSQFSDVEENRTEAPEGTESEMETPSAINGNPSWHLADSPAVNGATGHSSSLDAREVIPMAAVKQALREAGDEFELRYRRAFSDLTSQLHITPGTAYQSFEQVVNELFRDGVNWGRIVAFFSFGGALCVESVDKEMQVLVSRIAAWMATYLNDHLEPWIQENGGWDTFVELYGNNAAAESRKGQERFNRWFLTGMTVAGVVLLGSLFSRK
Method: as §1

Sequence of Mcl-1 (Q07820 whole entry, species assumed): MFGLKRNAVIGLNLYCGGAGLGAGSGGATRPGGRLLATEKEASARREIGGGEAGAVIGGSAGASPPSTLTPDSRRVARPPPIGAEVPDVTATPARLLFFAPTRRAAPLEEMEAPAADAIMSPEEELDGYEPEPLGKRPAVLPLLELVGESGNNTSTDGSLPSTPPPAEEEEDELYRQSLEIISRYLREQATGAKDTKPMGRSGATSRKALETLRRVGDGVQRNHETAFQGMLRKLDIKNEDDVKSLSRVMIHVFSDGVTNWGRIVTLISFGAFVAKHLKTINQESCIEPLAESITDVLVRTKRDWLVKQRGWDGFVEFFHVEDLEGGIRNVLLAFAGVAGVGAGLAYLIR

In the case of `Cn1cc(C(=O)c2cccs2)c2cc(C(=O)NS(=O)(=O)CCN(CCSc3ccccc3)Cc3ccc4c(c3)OCO4)ccc21` [SZ28TA45], the “% Inhibition (25 μM) Mcl-1” value (Mcl-1) is reported as 46.8%, the “% Inhibition (50 μM) Mcl-1” value (Mcl-1) is reported as 54.0% and the “% Inhibition (25 μM) Bcl-XL” value (Bcl-XL) is reported as 25.7%. The “% Inhibition (50 μM) Bcl-XL” value (Bcl-XL) was 34.6%.

For `[N-]=[N+]=NS(=O)(=O)c1ccc(CN(CCSc2ccccc2)Cc2ccc(S(=O)(=O)NC(=O)c3ccc(-c4ccccn4)cc3)cc2)cc1` [SZ9TA25], the inhibition at 25 µM (Mcl-1) was 43.1%, the inhibition at 25 µM (Bcl-XL) was 18.6% and the inhibition at 50 µM (Bcl-XL) was < 2%.

For `COc1cccc(CN(CCSc2ccccc2)Cc2ccc(S(=O)(=O)NC(=O)c3cccc4ccccc34)cc2)c1` [SZ17TA7], the IC50 (Mcl-1) was 20.1 µM and the inhibition at 50 µM (Bcl-XL) was 66.5%.

Work on `NS(=O)(=O)c1ccc(CN(CCSc2ccccc2)Cc2ccc(S(=O)(=O)NC(=O)CCCN3C(=O)C(c4ccc(F)cc4F)=C(c4ccc(F)cc4F)C3=O)cc2)cc1` [SZ10TA20] yielded an inhibition at 25 µM (Mcl-1) of 27.8%, an inhibition at 50 µM (Mcl-1) of 7.6% and an inhibition at 25 µM (Bcl-XL) of 3.8%. For the same compound, the inhibition at 50 µM (Bcl-XL) was < 2%.

In the case of `Cn1cc(C(=O)C2CCCCC2)c2cc(C(=O)NS(=O)(=O)c3ccc(COc4ccc5c(=O)cc(-c6ccccc6)oc5c4)cc3)ccc21` [SZ14TA40], the “% Inhibition (25 μM) Mcl-1” value (Mcl-1) is reported as 68.5%, the “% Inhibition (50 μM) Mcl-1” value (Mcl-1) is reported as 93.1% and the “% Inhibition (25 μM) Bcl-XL” value (Bcl-XL) is reported as 27.8%. For the same compound, the “% Inhibition (50 μM) Bcl-XL” value (Bcl-XL) was 47.9%.

`Cc1nc(-c2ccccc2)sc1C(=O)NS(=O)(=O)c1ccc(CN(CCSc2ccccc2)Cc2c(F)cccc2Cl)cc1` [SZ15TA3] gave an IC50 (Mcl-1) of 5.8 µM and an inhibition at 50 µM (Bcl-XL) of 43%.

For `CN(CCc1ccccc1)Cc1ccc(S(=O)(=O)NC(=O)c2ccc(C(c3c[nH]c4ccccc34)c3c[nH]c4ccccc34)cc2)cc1` [SZ2TA31], the “% Inhibition (25 μM) Mcl-1” value (Mcl-1) was 14.2%, the “% Inhibition (50 μM) Mcl-1” value (Mcl-1) was 16.2% and the “% Inhibition (25 μM) Bcl-XL” value (Bcl-XL) was 14.9%. For the same compound, the “% Inhibition (50 μM) Bcl-XL” value (Bcl-XL) was 9.4%.

In the case of `O=C(NS(=O)(=O)c1ccc(CN(CCSc2ccccc2)Cc2c(F)cccc2Cl)cc1)c1ccc(OC(F)(F)F)cc1` [SZ15TA8], the IC50 (Mcl-1) is reported as 7.6 µM, the “% Inhibition (25 μM) Mcl-1” value (Mcl-1) is reported as <2.0% and the “% Inhibition (50 μM) Mcl-1” value (Mcl-1) is reported as 96.5%. For the same compound, the IC50 (Bcl-XL) was 47 µM, the “% Inhibition (25 μM) Bcl-XL” value (Bcl-XL) was 3.4% and the “% Inhibition (50 μM) Bcl-XL” value (Bcl-XL) was 12.4%.

With `COc1cccc(CN(CCSc2ccccc2)Cc2ccc(S(=O)(=O)NC(=O)c3ccc(CCc4ccccn4)cc3)cc2)c1` [SZ17TA17] the “% Inhibition (25 μM) Mcl-1” value (Mcl-1) was 73.9%, the “% Inhibition (50 μM) Mcl-1” value (Mcl-1) was 89.0% and the “% Inhibition (25 μM) Bcl-XL” value (Bcl-XL) was 68.1%. For the same compound, the “% Inhibition (50 μM) Bcl-XL” value (Bcl-XL) was 58.4%.

With `COc1cc(OC)cc(C(=O)NS(=O)(=O)c2ccc(CN(CCSc3ccccc3)Cc3ccc(S(=O)(=O)N=[N+]=[N-])cc3)cc2)c1` [SZ9TA5] the IC50 (Mcl-1) was 8.1 µM, the inhibition at 25 µM (Mcl-1) was 50% and the inhibition at 50 µM (Mcl-1) was > 99%. It also gave an IC50 (Bcl-XL) of 36 µM, an inhibition at 25 µM (Bcl-XL) of 8.6% and an inhibition at 50 µM (Bcl-XL) of 60.3%.

With `O=C(NS(=O)(=O)CCN(CCSc1ccccc1)Cc1ccc2c(c1)OCO2)c1ccc2c(ccn2Cc2ccc(C(F)(F)F)cc2C(F)(F)F)c1` [SZ28TA30] the “% Inhibition (25 μM) Mcl-1” value (Mcl-1) was 42.8%, the “% Inhibition (50 μM) Mcl-1” value (Mcl-1) was 60.5% and the “% Inhibition (25 μM) Bcl-XL” value (Bcl-XL) was 9.7%. For the same compound, the “% Inhibition (50 μM) Bcl-XL” value (Bcl-XL) was <2.0%.

`Cc1nc(-c2ccccc2)sc1C(=O)NS(=O)(=O)c1ccc(CN(CCSc2ccccc2)Cc2ccc(S(=O)(=O)N=[N+]=[N-])cc2)cc1` [SZ9TA3] was tested, and the IC50 (Mcl-1) was 22.7 µM, the inhibition at 50 µM (Mcl-1) was 83.1% and the inhibition at 50 µM (Bcl-XL) was 21.6%.

For `O=C(NS(=O)(=O)c1ccc(CN(CCSc2ccccc2)Cc2ccc3c(c2)OCO3)cc1)c1ccc(C(c2c[nH]c3ccccc23)c2c[nH]c3ccccc23)cc1` [SZ31TA31], the “% Inhibition (25 μM) Mcl-1” value (Mcl-1) was <2.0%, the “% Inhibition (50 μM) Mcl-1” value (Mcl-1) was <2.0% and the “% Inhibition (25 μM) Bcl-XL” value (Bcl-XL) was <2.0%. For the same compound, the “% Inhibition (50 μM) Bcl-XL” value (Bcl-XL) was <2.0%.

In the case of `COc1cc(OC)cc(C(=O)NS(=O)(=O)c2ccc(CN(CCSc3ccccc3)Cc3c(F)cccc3Cl)cc2)c1` [SZ15TA5], the IC50 (Mcl-1) is reported as 13.4 µM, the “% Inhibition (50 μM) Mcl-1” value (Mcl-1) is reported as >99.0% and the IC50 (Bcl-XL) is reported as 53 µM. For the same compound, the “% Inhibition (50 μM) Bcl-XL” value (Bcl-XL) was 38.4%.

In the case of `COc1cccc(CN(CCSc2ccccc2)Cc2ccc(S(=O)(=O)NC(=O)c3ccc4c(c3)c(C(=O)c3cccs3)cn4C)cc2)c1` [SZ17TA45], the “% Inhibition (25 μM) Mcl-1” value (Mcl-1) is reported as 62.7%, the “% Inhibition (50 μM) Mcl-1” value (Mcl-1) is reported as 34.5% and the “% Inhibition (25 μM) Bcl-XL” value (Bcl-XL) is reported as 6.8%. For the same compound, the “% Inhibition (50 μM) Bcl-XL” value (Bcl-XL) was <2.0%.
